Data taken from ChEMBL document CHEMBL5584233, “Amide bioisosteric replacement in the design and synthesis of quorum sensing modulators” (Eur J Med Chem, 2024).

Assays:
[1] = target: T1, Transcriptional regulator MvfR (Pseudomonas aeruginosa PA14) (UniProt A0A072ZLE6); assay: Inhibition of PqsR-mediated quorum sensing system in Pseudomonas aeruginosa PAO1 assessed as inhibition of pyocyanin production at 100 uM relative to control
T1 sequence (whole entry): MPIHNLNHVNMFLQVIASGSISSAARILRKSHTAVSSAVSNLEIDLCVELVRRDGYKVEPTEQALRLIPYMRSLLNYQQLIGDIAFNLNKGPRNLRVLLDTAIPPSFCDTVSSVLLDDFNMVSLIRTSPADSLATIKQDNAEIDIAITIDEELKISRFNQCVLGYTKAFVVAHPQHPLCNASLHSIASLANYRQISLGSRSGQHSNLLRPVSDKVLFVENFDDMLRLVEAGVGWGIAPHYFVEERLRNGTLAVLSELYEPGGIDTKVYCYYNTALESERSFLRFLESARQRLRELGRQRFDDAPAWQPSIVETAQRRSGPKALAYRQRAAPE

[2] = target: T2, Transcriptional regulator MvfR (Pseudomonas aeruginosa PA14, UniProt A0A072ZLE6); assay: Inhibition of PqsR-mediated quorum sensing system in Pseudomonas aeruginosa PAO1 assessed as inhibition of pyocyanin production at 20 uM incubated for 24 hrs by absorbance based assay
T2 sequence (A0A072ZLE6 whole entry): T1 sequence (whole entry)

[3] = Inhibition of quorum sensing system in Chromobacterium violaceum CV026 assessed as reduction in violacein production
[4] = target: T2, Transcriptional regulator MvfR; assay: Antagonist activity at PqsR in Pseudomonas aeruginosa IPCD48 clinical isolate assessed as reduction in PQS level at 0.1 uM by LCMS/MS analysis
[5] = Inhibition of quorum sensing system in Vibrio fischeri; parameters: species or system Aliivibrio fischeri
Pseudomonas aeruginosa = assay: Antibiofilm activity against Pseudomonas aeruginosa PAO1 assessed as inhibition of biofilm formation at 50 uM incubated for 24 hrs by crystal violet staining based absorbance assay relative to control; type: functional; parameters: scale not given: the % may be the effect or the level left
[6] = target: T3, Transcriptional activator protein LasR (Pseudomonas aeruginosa (strain ATCC 15692 / PAO1 / 1C / PRS 101 / LMG12228), UniProt P25084); assay: Inhibition of LasR-mediated quorum sensing system in Pseudomonas aeruginosa PAO1 assessed as inhibition of pyocyanin production incubated for 24 hrs by absorbance based assay
T3 sequence (P25084 whole entry): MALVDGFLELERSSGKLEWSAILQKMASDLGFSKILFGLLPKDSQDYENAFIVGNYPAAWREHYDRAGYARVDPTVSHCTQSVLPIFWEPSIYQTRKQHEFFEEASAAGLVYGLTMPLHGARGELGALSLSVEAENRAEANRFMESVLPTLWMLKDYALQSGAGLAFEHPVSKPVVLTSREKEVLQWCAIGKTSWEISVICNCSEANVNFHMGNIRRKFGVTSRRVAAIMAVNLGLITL

[7] = target: T2, Transcriptional regulator MvfR; assay: Antagonist activity at PqsR in wild-type Pseudomonas aeruginosa PAO1-L assessed as reduction in HHQ level at 0.1 uM by LCMS/MS analysis
[8] = target: T2, Transcriptional regulator MvfR; assay: Inhibition of PqsR-mediated quorum sensing system in Pseudomonas aeruginosa PAO1 assessed as inhibition of pyocyanin production incubated for 24 hrs by absorbance based assay
[9] = target: T2, Transcriptional regulator MvfR; assay: Antagonist activity at PqsR in wild-type Pseudomonas aeruginosa PAO1 assessed as reduction in AQ level
[10] = Inhibition of quorum sensing system in Pseudomonas aeruginosa PAO1 transfected with lasB-GFP by measuring reduction in fluorescence intensity measured for 16 hrs by fluorescence assay
[11] = target: T3, Transcriptional activator protein LasR; assay: Inhibition of LasR-mediated quorum sensing system in Pseudomonas aeruginosa PAO1 assessed as inhibition of elastase production
[12] = Inhibition of quorum sensing system in Pseudomonas aeruginosa PAO1
[13] = target: T4, Transcriptional activator protein TraR (Agrobacterium tumefaciens, UniProt P33905); assay: Antagonist activity at Agrobacterium tumefaciens TraR receptor
T4 sequence (P33905 whole entry): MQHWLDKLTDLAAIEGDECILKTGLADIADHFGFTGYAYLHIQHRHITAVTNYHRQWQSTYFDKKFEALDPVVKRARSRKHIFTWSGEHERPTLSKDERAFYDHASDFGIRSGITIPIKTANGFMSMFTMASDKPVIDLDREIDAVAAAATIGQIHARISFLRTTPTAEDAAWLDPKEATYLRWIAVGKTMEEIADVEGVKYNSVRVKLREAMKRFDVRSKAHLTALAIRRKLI

## CCCCNC(=O)CSc1nc2ccccc2c(=O)n1C1CC1
[1]
  inhibition: 62%

## FC(F)(F)c1cc(NCc2cn(-c3ccc(Oc4ccccc4)cc3)nn2)ccn1
[2]
  IC50: 0.011 µM

## COc1ccc(NC(=O)Cn2cc(CSc3nc4ccccc4c(=O)n3C3CC3)nn2)cc1
[1]
  inhibition: 74%

## O=C(Nc1ccc(S(=O)(=O)N[C@H]2CCOC2=O)cc1)c1ccccc1F
[3]
  IC50: 1.6 µM

## Nc1cc(NCC(=O)Nc2ccc(F)cc2)cc(C(F)(F)F)n1
[2]
  IC50: 0.48 µM

## CCOC(=O)CC(=O)c1ccc(F)cc1
[4]
  IC50: 23 µM

## O=C1OCCC1NS(=O)(=O)CCc1ccccc1 (stereo not drawn)
[5]
  IC50: 3 µM

## O=C(Nc1cc(=O)c2ccccc2o1)c1ccc([N+](=O)[O-])cc1[N+](=O)[O-]
Pseudomonas aeruginosa
  Activity: 90%

## Cc1cc(C)c(S(=O)(=O)NC[C@H]2O[C@@H](C)[C@@H](O)[C@@H](O)[C@@H]2O)c(C)c1
[6]
  IC50: 3 µM

## O=C(N[C@H]1CCOC1=O)OCc1ccc([N+](=O)[O-])cc1
[7]
  IC50: 22 µM

## O=C(CN1CCOCC1)Nc1cccc([N+](=O)[O-])c1
[4]
  IC50: > 483 µM

## CCCCCS(=O)(=O)NC1CCOC1=O (stereo not drawn)
[5]
  IC50: 2 µM

## CCCCCCNC(=O)NC1CCOC1=O (stereo not drawn)
[8]
  IC50: 1 µM

## O=C(Oc1c(Br)cc(Br)cc1CNC(=O)c1ccccc1[N+](=O)[O-])c1ccccc1Cl
[9]
  IC50: 0.038 µM

## O=C(NCCc1ccc(Br)cc1)c1ccccc1[N+](=O)[O-]
[10]
  IC50: 4.8 µM

## O=[N+]([O-])c1ccccc1S(=O)(=O)Nc1ccc(S(=O)(=O)Nc2nccs2)cc1
[11]
  IC50: 60 µM

## O=C(Nc1ccc(S(=O)(=O)N[C@H]2CCOC2=O)cc1)c1sccc1Cl
[3]
  IC50: 6.2 µM

## O=C(Nc1ccc(F)cc1)c1cc(=O)c2ccccc2o1
Pseudomonas aeruginosa
  Activity: 73.3%

## Fc1ccc(-n2cc(CNc3ccnc(C(F)(F)F)c3)nn2)cc1
[2]
  IC50: 0.196 µM

## CCCCCCCCCS(=O)(=O)N[C@H]1CCOC1=O
[12]
  IC50: 1 µM

## O=C(Nc1cc(=O)c2ccccc2o1)c1ccc(F)cc1
Pseudomonas aeruginosa
  Activity: 65.3%

## O=C(N[C@H]1CCOC1=O)SCc1ccc([N+](=O)[O-])cc1
[7]
  IC50: 23 µM

## O=C(NCc1cc(F)cc(F)c1)c1ccccc1[N+](=O)[O-]
[10]
  IC50: 6.6 µM

## CCCCCCc1cncn1CC(=O)OCC
[2]
  IC50: 87 µM

## C[C@@H]1O[C@H](CNC(=O)/C=C/c2ccccc2)[C@@H](O)[C@H](O)[C@@H]1O
[6]
  IC50: 88 µM

## CCCCCCS(=O)(=O)N[C@H]1CCOC1=O
[13]
  IC50: 0.8 µM

## CCOC(=O)CC(=O)c1ccccc1
[4]
  IC50: 76 µM

## CCCCCNC(=O)NC1CCOC1=O (stereo not drawn)
[8]
  IC50: 1.1 µM

## CO[C@H]1O[C@H](CNS(=O)(=O)c2c(C)cc(C)cc2C)[C@@H](O)[C@H](O)[C@@H]1O
[6]
  IC50: 4 µM

## CCCCCCOC(=O)N[C@H]1CCOC1=O
[7]
  IC50: 73 µM

## CCCCCCCCCCCCn1nnc(CC(=O)O)n1
[9]
  IC50: 0.03 µM

## CCCCCCCCCCS(=O)(=O)N[C@H]1CCOC1=O
[12]
  IC50: 1.1 µM

## O=C(CN1CCOCC1)Oc1cccc([N+](=O)[O-])c1
[4]
  IC50: 22 µM

## O=C(NCc1cccc(I)c1)c1ccccc1[N+](=O)[O-]
[10]
  IC50: 6.5 µM

## CCCCS(=O)(=O)N[C@H]1CCOC1=O
[13]
  IC50: 0.6 µM

## CCCCCCc1cncn1C1CCOC1=O (stereo not drawn)
[2]
  IC50: 110 µM

## CCCCSC(=O)N[C@H]1CCOC1=O
[7]
  IC50: 45 µM

## O=C(Nc1ccc([N+](=O)[O-])cc1)c1cc(=O)c2ccccc2o1
Pseudomonas aeruginosa
  Activity: 58.7%
